Molecules are shown by their SMILES. Where two headings read alike, the source gives them in different places.

One assay addresses T1, KCNQ2/3 (Homo sapiens, UniProt O43525+O43526).
T1 construct: expressed in transfected cells
In words: High throughput atomic absorption Rb+ efflux testing, KCNQ2/3. The conditions noted are these: Rb+ efflux by atomic absorption. It counts as cell-based.

Assay [1] concerns male mice. In words: The maximum electric shock experiment. Particulars: Mus musculus, corneal electrode 26 mA 0.4 second, forced feeding 10, 25, 50 mg/kg, read-out: ED50 anticonvulsant effect. It counts as in vivo. The source says: “The maximum electric shock” experiment: The experiment uses electrical method to measure non-specific CNS-induced seizures.
Pharmaceutical composition used: the compound number 21 for the testing group, phenyloin for positive control group.
Experimental method: Apply corneal electrode in male mice of each group, apply 26 mA square wave current for 0.4 second, and forced feeding the pharmaceutical composition after inducing convulsion which is characterized by hindlimb tonic extension (Wlaz et al., Epilepsy Research 1998, 30, 219-229). Dosages for the testing group are: 10 mg/kg (body weight) per administration, 25 mg/kg (body weight) per administration, and 50 mg/kg (body weight) per administration respectively. For control group, dosage is 25 mg/kg (body weight) per administration.

The next assay concerns the target KCNQ2/Q3 channel (Homo sapiens, UniProt O43525+O43526). In words: Patch-clamp electrophysiology testing, CHO cell of KCNQ2/Q3 channel. It counts as cell-based. The conditions noted are these: clamping voltage -80 mV, depolarized to -40 mV, FIG. 5a. The source says: (2) Testing method: Culture of ovary cell of Chinese hamster (CHO, Chinese Hamster Overy): steadily transfer the CHO cell culture of KCNQ2/Q3 channel into a composition containing 10% fetal bovine serum, 100 U/ml penicillin and DMEM culture solution of streptomycin, and allow digestion passage of trypsin. Spread the cell on a 12 mm round-shaped coverslip and culture on a 24-well cell culture plate.
Record membrane current using patch-clamp technique: The patch-clamp amplifier is HEKA-EPC10. The electrode solution uses amphotericin B (final concentration of 0.1˜0.2 mg/ml) for perforated patch clamp recording. After polishing the microelectrodes, inject the electrode solution and control the to 2˜4MΩ. The electrode solution used for recording CHO cell are (mM): KCl 160, HEPES 5, MgCl2 3, CaCl2 1, EGTA 2, with pH adjusted to 7.4 with KOH; Extracellular electrode composition are (mM): NaCl 160, KCl 2.5, HEPES 10, glucose 8, MgCl2 1, CaCl2 5. After the cell membrane and microelectrodes form a high resistance seal, clamp at −80 mV, wait 5-10 min and record the readings according to different activation procedures.
(In patch-clamp work, channel activity is measured electrically.)

The next assay has as its system rat. In words: Amygdala kindling experiment. The format is in vivo. The conditions noted are these: vs pre-administration, p<0.01 vs control group. The source says:
This experiment is used to measure the disease progress, when further stimulation is applied, the seizure level of the animal in this model will be increased as in the situation of normal animal.
Pharmaceutical composition used: suspended solution of sodium carboxymethyl cellulose containing the compound number 21 for the testing group, suspended solution of sodium carboxymethyl cellulose for the positive control group, with concentration equal to the suspended solution of the testing group.
Testing method: perform surgery to implant tri-polar electrode into dorsolateral amygdale of rat. After surgery, allow the animal to recover, then administer testing compound or pharmaceutical solvent agent of different dosages to rat of different groups. The animal is treated with electrical stimulation at a value which is +25 μA of the initial discharge threshold on a daily basis for 3-5 weeks, and record each seizure incidence in which the level of seizure, the duration of the seizure, and electrical duration after discharge are recorded (Racine. Electroencephalography and Clinical Neurophysiology 1972, 32, 281-294). Dosage level is the same as that of exemplary embodiment 11.

The target in assay [2] is KCNQ4 potassium ion channel (Homo sapiens, UniProt P56696). In words: High throughput atomic absorption Rb+ efflux testing, CHO cell of KCNQ4 channel. The format is cell-based. Particulars: for EC50: CHO cell of KCNQ4 channel. The source says: Atomic absorption Rb^+ efflux testing is a fast and safe selection method for high throughput potassium channel moderator, and is characterized in that the activity of the ion channel and the control effect of the opener are directly reflected. Rb and K have similar atomic size, and potassium ion channel is permeable to Rb^+. By testing concentration of the Rb^+ efflux, a status of the potassium channel, which is an open status or a close status, can be determined. Rb has specific absorption at 780 nm, and Rb^+ concentration can be determined by atomic absorption spectroscopy. Accordingly, analysis method of atomic absorption spectroscopy can be used to select the opener/inhibitor of potassium channel through high throughput of Rb^+ efflux.
Stable cell transfer of CHO cell of KCNQ4 channel at log phase and inoculate in 96-well culture plate at a density of 2×10^4 unit/well. Each concentration has a triplicate-hole setting, and a control setting with solvent of corresponding concentration. Allow growth against the well-wall overnight, then discard the culture medium, add 200 μl loading buffer which contains RbCl, and culture in 5% CO2 at 37° C. for 3 hours. Then remove the loading buffer and wash with wash buffer for 3 times. Screen for the KCNQ opener, dilute testing compound with depolarization buffer, add 200 μl of the above solvent into the cell and allow reaction for 10 minutes. Incubate for 10 minutes, then carefully draw 200 μl supernatant to another 96-well culture plate, use ICR8000 atomic absorption spectrometry to determine the Rb^+ atomic absorption at 780 nm. Based on the equation Fsupern=(Rb_supern/cpd/Rb_supern/d)×100, calculate the corresponding rate of efflux.

In assay [3] the test system is male mice. In words: Pilocarpine-induced seizures experiment. Particulars: Mus musculus, ip, pilocarpine 250 mg/kg i.p., compound by intraperitoneal injection 1, 5, 10 mg/kg, read-out: ED50 anti-epilepsy effect. The format is in vivo. The method, then: Pilocarpine-induced seizure is, in general, difficult to treat by using the existing anti-epileptic drug, so it belongs to “drug-resistance epilepsy” model.
Pharmaceutical composition used: the compound number 24 for the testing group, phenyloin for positive control group.
Experimental method: Inject 250 mg/kg pilocarpine into the male mice of each group by intraperitoneal injection, induce pilocarpine-induced seizure, observe walking abnormality caused by seizures activities in 30 minutes (Starr et al, Pharmacology Biochemistry and Behavior 1993, 45, 321-325). Apply intraperitoneal injection. Dosages for the testing group are: 1 mg/kg (body weight) per administration, 5 mg/kg (body weight) per administration, and 10 mg/kg (body weight) per administration respectively. For control group, dosage is 50 mg/kg (body weight) per administration.

In turn, `O=c1cc(CCl)[nH]c2c(-c3ccccc3)c(C(F)(F)F)nn12` [Compound 21, 5-chloromethyl-3-phenyl-2-trifluoromethylpyrazolo[1,5-a]pyrimidin-7(4H)-one] yielded an EC50 on KCNQ2/3 of 3610 ± 6020 nM. The ED50 in the assay on male mice [1] is 12.2 ± 0.08 mg/kg. For the same compound, the “activation of KCNQ2/3 channel current” value at KCNQ2/Q3 channel is on record as “can activate the KCNQ2/3 channel current significantly”. In the assay with rat, the seizure level result was “increased in the seizure level” and the “time period after discharge process of amygdala” value is “shorten time period after discharge process of amygdale”. In addition, in assay [2] (Rb+ efflux by atomic absorption, read-out: KCNQ4), the EC50 amounted to 23900 ± 430 nM.

For `O=c1cc(-c2cc(F)c(Cl)nc2Cl)[nH]c2c(-c3ccccc3)c(C(F)(F)F)nn12` [Compound 24], the EC50 on KCNQ2/3 amounted to 78 ± 20 nM; in assay [2] (Rb+ efflux, 0.03-10 μM, FIG. 4, read-out: EC50), 210 ± 80 nM. Moreover, the ED50 with male mice [3] came to 5.1 ± 0.05 mg/kg. The “activating effect on the CHO cell of the KCNQ4 potassium ion channel” value in assay [2] (Rb+ efflux at 0.03, 0.1, 0.6, 1, 3 and 10 μM, FIG. 4) is reported as “dose-dependent activating effect”.
